Laboratory results reported in patent US20230257364A1, “PYRIDAZINONE-BASED COMPOUNDS AS AXL, C-MET, AND MER INHIBITORS AND METHODS OF USE THEREOF” (CMG Pharmaceutical Co., Ltd., priority 2022, published 2023).

Legend:
Assay type in all cases: biochemical
AXL = biological target: T1, AXL (Homo sapiens, UniProt P30530); assay: Enzymatic kinase assay (ADP-GLO), AXL; details: 10 μM ATP, poly (Glu4, Tyr1) substrate, 60 min room temperature, luminescence
T1 sequence (P30530 26-894): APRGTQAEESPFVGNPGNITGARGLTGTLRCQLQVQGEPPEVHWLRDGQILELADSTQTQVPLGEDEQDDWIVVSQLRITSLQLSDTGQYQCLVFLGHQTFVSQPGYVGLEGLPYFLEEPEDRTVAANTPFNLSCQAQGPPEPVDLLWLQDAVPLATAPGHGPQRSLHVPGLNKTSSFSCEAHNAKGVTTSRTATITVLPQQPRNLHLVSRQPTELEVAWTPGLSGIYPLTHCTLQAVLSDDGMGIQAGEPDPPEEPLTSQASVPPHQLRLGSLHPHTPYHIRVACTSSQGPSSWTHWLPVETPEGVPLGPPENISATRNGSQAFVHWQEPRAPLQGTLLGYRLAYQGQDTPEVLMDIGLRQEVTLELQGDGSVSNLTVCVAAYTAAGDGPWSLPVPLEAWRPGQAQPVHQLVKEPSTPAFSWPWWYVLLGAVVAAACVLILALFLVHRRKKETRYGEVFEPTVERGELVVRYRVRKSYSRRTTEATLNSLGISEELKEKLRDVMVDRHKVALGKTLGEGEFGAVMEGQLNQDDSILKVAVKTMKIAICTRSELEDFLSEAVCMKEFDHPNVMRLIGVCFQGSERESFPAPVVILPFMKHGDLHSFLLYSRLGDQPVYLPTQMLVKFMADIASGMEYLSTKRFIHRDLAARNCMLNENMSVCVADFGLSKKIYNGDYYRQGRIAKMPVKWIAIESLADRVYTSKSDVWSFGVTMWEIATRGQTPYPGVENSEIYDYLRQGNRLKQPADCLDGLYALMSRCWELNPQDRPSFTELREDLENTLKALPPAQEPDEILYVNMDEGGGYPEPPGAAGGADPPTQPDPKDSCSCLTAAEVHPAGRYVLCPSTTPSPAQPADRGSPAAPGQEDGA
Experimental: (§1) This example illustrates an enzymatic assay to determine the inhibitory activity of exemplary compounds of Formula (I) in an aspect of the invention.
(§2) All the kinase reactions were performed in 5 μL using tyrosine kinase buffer with 0.2 μg/μL poly (Glu4, Tyr1) substrate, 10 μM ATP, serial dilution of the inhibitor, and incubated at room temperature for 60 min. After the indicated incubation times, 5 μL ADP-GLO™ reagent (Promega, Madison, Wis.) was added to the reactions and the plate was incubated at room temperature for 40 min. Then, 10 μL of kinase detection reagent was added and after an incubation time of 40 min, luminescence was recorded and IC50 values were determined (Table 1). All 384-well assay plates were read using a GLOMAX™ Discover Microplate Luminometer from Promega (Madison, Wis.). To plot, analyze the data and calculate all kinase reaction biochemical values, both Microsoft Excel and Prism from GraphPad 7 Software (La Jolla, Calif.) were used.

MER = biological target: T2, MER (Homo sapiens, UniProt Q12866); assay: Enzymatic kinase assay (ADP-GLO), MER; details: 10 μM ATP, poly (Glu4, Tyr1) substrate, 60 min room temperature, luminescence
T2 sequence (Q12866 21-999): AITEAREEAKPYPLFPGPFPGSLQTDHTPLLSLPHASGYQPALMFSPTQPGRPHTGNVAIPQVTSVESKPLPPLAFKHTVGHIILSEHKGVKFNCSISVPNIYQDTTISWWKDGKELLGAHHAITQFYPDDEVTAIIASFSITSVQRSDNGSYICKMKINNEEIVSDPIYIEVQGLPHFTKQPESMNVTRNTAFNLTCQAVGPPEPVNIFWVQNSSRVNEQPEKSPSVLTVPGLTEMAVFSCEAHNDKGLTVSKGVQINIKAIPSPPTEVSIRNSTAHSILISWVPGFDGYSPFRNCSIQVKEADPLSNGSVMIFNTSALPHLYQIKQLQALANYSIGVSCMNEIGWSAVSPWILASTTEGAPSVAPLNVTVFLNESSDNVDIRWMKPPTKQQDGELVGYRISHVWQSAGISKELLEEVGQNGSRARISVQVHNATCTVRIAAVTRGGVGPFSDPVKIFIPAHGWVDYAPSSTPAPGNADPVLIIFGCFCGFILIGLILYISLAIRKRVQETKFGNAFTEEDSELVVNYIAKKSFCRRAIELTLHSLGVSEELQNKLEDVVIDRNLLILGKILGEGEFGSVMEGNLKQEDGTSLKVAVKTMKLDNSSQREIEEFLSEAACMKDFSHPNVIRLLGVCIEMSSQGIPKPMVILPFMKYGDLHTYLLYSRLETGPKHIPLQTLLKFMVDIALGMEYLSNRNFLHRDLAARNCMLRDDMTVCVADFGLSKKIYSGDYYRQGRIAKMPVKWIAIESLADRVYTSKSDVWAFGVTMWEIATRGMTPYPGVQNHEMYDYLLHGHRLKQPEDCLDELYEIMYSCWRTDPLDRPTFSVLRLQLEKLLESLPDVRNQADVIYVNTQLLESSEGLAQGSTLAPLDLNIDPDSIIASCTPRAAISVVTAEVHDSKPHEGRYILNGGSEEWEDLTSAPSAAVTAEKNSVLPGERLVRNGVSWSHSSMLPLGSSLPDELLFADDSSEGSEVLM
Experimental: as §1, §2

C-MET = C-MET (Homo sapiens, UniProt P08581); assay: Enzymatic kinase assay (ADP-GLO), C-MET; details: 10 μM ATP, poly (Glu4, Tyr1) substrate, 60 min room temperature, luminescence; read-out: Enzymatic assay IC50 (nM) C-MET
C-MET, sequence (P08581 25-1390): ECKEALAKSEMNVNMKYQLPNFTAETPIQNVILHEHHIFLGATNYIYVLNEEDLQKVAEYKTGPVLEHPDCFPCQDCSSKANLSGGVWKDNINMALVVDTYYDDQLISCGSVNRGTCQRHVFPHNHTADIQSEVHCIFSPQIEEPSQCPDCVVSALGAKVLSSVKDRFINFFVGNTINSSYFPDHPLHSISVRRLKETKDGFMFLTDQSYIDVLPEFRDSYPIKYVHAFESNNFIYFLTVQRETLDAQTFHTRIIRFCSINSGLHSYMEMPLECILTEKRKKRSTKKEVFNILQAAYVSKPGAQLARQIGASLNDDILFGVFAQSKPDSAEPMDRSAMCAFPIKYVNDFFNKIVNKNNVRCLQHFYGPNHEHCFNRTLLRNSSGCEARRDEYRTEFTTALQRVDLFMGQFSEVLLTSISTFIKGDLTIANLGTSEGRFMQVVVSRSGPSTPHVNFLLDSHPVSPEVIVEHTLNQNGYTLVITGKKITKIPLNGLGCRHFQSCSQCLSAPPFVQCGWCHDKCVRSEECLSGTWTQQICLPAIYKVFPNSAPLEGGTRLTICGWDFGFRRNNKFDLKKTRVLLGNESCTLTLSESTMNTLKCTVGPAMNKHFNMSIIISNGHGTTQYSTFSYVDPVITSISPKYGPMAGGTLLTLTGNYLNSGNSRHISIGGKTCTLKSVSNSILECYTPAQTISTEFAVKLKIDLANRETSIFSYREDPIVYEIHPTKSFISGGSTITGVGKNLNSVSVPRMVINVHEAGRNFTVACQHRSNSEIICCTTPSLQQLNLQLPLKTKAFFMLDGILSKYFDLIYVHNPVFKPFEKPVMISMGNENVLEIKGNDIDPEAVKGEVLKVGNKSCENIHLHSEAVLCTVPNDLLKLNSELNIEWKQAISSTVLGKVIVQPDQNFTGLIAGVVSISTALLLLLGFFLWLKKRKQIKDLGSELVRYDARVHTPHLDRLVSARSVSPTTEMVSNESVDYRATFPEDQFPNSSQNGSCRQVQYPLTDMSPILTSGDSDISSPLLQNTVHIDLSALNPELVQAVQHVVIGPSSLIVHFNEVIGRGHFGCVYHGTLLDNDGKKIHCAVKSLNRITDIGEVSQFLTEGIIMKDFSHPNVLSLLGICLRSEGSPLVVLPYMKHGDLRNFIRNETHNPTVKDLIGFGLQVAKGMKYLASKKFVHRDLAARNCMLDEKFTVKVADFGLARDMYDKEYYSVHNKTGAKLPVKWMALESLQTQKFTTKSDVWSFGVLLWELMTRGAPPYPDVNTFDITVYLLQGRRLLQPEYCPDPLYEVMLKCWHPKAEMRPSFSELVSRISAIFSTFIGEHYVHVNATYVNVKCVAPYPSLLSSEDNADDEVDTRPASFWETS
Experimental: as §1
as §2, with “Then, 10 μL of kinase detection reagent was added and after an incubation time of 40 min, luminescence was recorded and IC50 values were determined (Table 1).” left out

Row | SMILES | IC50 (AXL) [nM] | IC50 (MER) [nM] | IC50 (C-MET) [nM]
1 | Nc1nccc(Oc2ccc(NC(=O)c3ccnn(-c4ccc(F)cc4)c3=O)cc2F)c1Cl [Example 1, N-(4-(2-amino-3-chloropyridin-4-yloxy)-3-fluorophenyl)-2-(4-fluorophenyl)-3-oxo-2,3-dihydropyridazine-4-carboxamide] | < 1000 | < 1000 | < 1000
2 | Nc1nccc(Oc2ccc(NC(=O)c3ccnn(-c4ccc(F)cc4)c3=O)cc2F)c1C#CC(=O)N1CCOCC1 [Example 2, N-(4-(2-amino-3-(3-morpholino-3-oxoprop-1-ynyl)pyridin-4-yloxy)-3-fluorophenyl)-2-(4-fluorophenyl)-3-oxo-2,3-dihydropyridazine-4-carboxamide] | < 100 | < 10 | < 1000
3 | Nc1nccc(Oc2ccc(NC(=O)c3ccnn(-c4ccc(F)cc4)c3=O)cc2F)c1C#CCN1CCOCC1 [Example 3, N-(4-(2-amino-3-(morpholinoprop-1-ynyl)pyridine-4-yloxy)-3-fluorophenyl)-2-(4-fluorophenyl)-3-oxo-2,3-dihydropyridazine-4-carboxamide] | < 1000 | < 1000 | < 1000
4 | Nc1nccc(Oc2ccc(NC(=O)c3ccnn(-c4ccc(F)cc4)c3=O)cc2F)c1/C=C/C(=O)N1CCOCC1 [Example 4, (E)-N-(4-(2-amino-3-(3-morpholino-3-oxoprop-1-enyl)pyridine-4-yloxy)-3-fluorophenyl)-2-(4-fluorophenyl)-3-oxo-2,3-dihydropyridazine-4-carboxamide] | < 1000 | < 100 | < 100
5 | N#Cc1c(Oc2ccc(NC(=O)c3ccnn(-c4ccc(F)cc4)c3=O)cc2F)ccnc1N [Example 5] | < 100 | < 1000 | < 10
6 | Nc1nccc(Oc2ccc(NC(=O)c3ccnn(-c4ccc(F)cc4)c3=O)cc2F)c1C#CCN1CCNCC1 [Example 6, N-(4-(2-amino-3-(3-(piperazin-1-yl)prop-1-ynyl)pyridin-4-yloxy)-3-fluorophenyl)-2-(4-fluorophenyl)-3-oxo-2,3-dihydropyridazine-4-carboxamide] | < 1000 | < 1000 | < 1000
7 | Nc1nccc(Oc2ccc(NC(=O)c3ccnn(-c4ccc(F)cc4)c3=O)cc2F)c1/C=C/C(=O)N1CCNCC1 [Example 7, (E)-N-(4-(2-amino-3-(3-oxo-3-(piperazin-1-yl)prop-1-enyl)pyridin-4-yloxy)-3-fluorophenyl)-2-(4-fluorophenyl)-3-oxo-2,3-dihydropyridazine-4-carboxamide] | < 1000 | < 1000 | < 1000
8 | Nc1nccc(Oc2ccc(NC(=O)c3ccnn(-c4ccc(F)cc4)c3=O)cc2F)c1C#CCCN1CCOCC1 [Example 8, N-(4-(2-amino-3-(4-morpholinobut-1-ynyl)pyridin-4-yloxy)-3-fluorophenyl)-2-(4-fluorophenyl)-3-oxo-2,3-dihydropyridazine-4-carboxamide] | < 100 | < 1000 | < 1000
9 | Nc1nccc(Oc2ccc(NC(=O)c3ccnn(-c4ccc(F)cc4)c3=O)cc2F)c1C#CC(=O)N1CCC(O)CC1 [Example 9, N-(4-(2-amino-3-(3-(4-hydroxypiperidin-1-yl)-3-oxoprop-1-ynyl)pyridin-4-yloxy)-3-fluorophenyl)-2-(4-fluorophenyl)-3-oxo-2,3-dihydropyridazine-4-carboxamide] | < 10 | < 100 | < 100
10 | COC1CCN(C(=O)C#Cc2c(Oc3ccc(NC(=O)c4ccnn(-c5ccc(F)cc5)c4=O)cc3F)ccnc2N)CC1 [Example 10, N-(4-(2-amino-3-(3-(4-methoxypiperidin-1-yl)-3-oxoprop-1-ynyl)pyridin-4-yloxy)-3-fluorophenyl)-2-(4-fluorophenyl)-3-oxo-2,3-dihydropyridazine-4-carboxamide] | < 100 | < 1000 | < 1000
11 | COCCONC(=O)C#Cc1c(Oc2ccc(NC(=O)c3ccnn(-c4ccc(F)cc4)c3=O)cc2F)ccnc1N [Example 11, N-(4-(2-amino-3-(3-(2-methoxyethoxyamino)-3-oxoprop-1-ynyl)pyridin-4-yloxy)-3-fluorophenyl)-2-(4-fluorophenyl)-3-oxo-2,3-dihydropyridazine-4-carboxamide] | < 100 | < 1000 | < 10
12 | COCCON(C)C(=O)C#Cc1c(Oc2ccc(NC(=O)c3ccnn(-c4ccc(F)cc4)c3=O)cc2F)ccnc1N [Example 12, N-(4-(2-amino-3-(3-((2-methoxyethoxy)(methyl)amino)-3-oxoprop-1-ynyl)pyridin-4-yloxy)-3-fluorophenyl)-2-(4-fluorophenyl)-3-oxo-2,3-dihydropyridazine-4-carboxamide] | < 100 | < 100 | < 100
13 | Nc1nccc(Oc2ccc(NC(=O)c3ccnn(-c4ccc(F)cc4)c3=O)cc2F)c1C#CC(=O)N1CCNCC1 [Example 13, N-(4-(2-amino-3-(3-oxo-3-(piperazin-1-yl)prop-1-ynyl)pyridin-4-yloxy)-3-fluorophenyl)-2-(4-fluorophenyl)-3-oxo-2,3-dihydropyridazine-4-carboxamide] | < 100 | < 100 | < 100
14 | COCCN1CCN(C(=O)C#Cc2c(Oc3ccc(NC(=O)c4ccnn(-c5ccc(F)cc5)c4=O)cc3F)ccnc2N)CC1 [Example 14, N-(4-(2-amino-3-(3-(4-(2-methoxyethyl)piperazin-1-yl)-3-oxoprop-1-ynyl)pyridin-4-yloxy)-3-fluorophenyl)-2-(4-fluorophenyl)-3-oxo-2,3-dihydropyridazine-4-carboxamide] | < 10 | < 10 | < 10
15 | Nc1nccc(Oc2ccc(NC(=O)c3cccn(-c4ccc(F)cc4)c3=O)cc2F)c1C#CC(=O)N1CCNCC1 [Example 15, N-(4-(2-amino-3-(3-oxo-3-(piperazin-1-yl)prop-1-ynyl)pyridin-4-yloxy)-3-fluorophenyl)-1-(4-fluorophenyl)-2-oxo-1,2-dihydropyridine-3-carboxamide] | < 100 | < 100 | < 100
